Like-named read-outs stand apart in the source and are kept apart here.
Key:
[1] = tested on: serum uric acid (sUA) and urinary uric acid (uUA); conditions: for sUA mean percentage change from screening: after 300 mg allopurinol QD for 7 days, day 1 (pre-dose); for sUA level at baseline (day –1): following 7 days of 300 mg allopurinol run-in
[2] = Study 1 plasma pharmacokinetics of verinurad, allopurinol and oxypurinol; format: in vivo, human; conditions: for Tmax: median (range)
Method: Cohort 1 was randomized, double‐blind, and placebo‐controlled and consisted of 12 healthy Asian participants, of whom <50% were Chinese. Cohort 2 was open‐label, consisting of 9 healthy Chinese participants.
In both studies, participants received verinurad capsules with an extended‐release profile. On the days of pharmacokinetic sampling, treatment was given in fasting state.
Verinurad plasma samples were analyzed using similar methodologies as described by Shen et al.[13] with lower and upper limits of quantification of 0.100 ng/mL and 40.0 ng/mL, respectively.

[3] = human, plasma, oral, healthy Asian participants, 24 mg verinurad + 300 mg allopurinol QD, Day 1, geometric mean (gCV%), read-out: Cmax
[4] = human, plasma, oral, healthy Asian participants, 24 mg verinurad + 300 mg allopurinol QD, Day 1, read-out: tmax
[5] = human, plasma, oral, healthy Asian participants, 24 mg verinurad + 300 mg allopurinol QD, Day 7, geometric mean (gCV%), read-out: AUCτ
[6] = human, plasma, oral, healthy Asian participants, 24 mg verinurad + 300 mg allopurinol QD, Day 7, geometric mean (gCV%), read-out: Cmax
[7] = human, plasma, oral, healthy Chinese participants, 12 mg verinurad + 300 mg allopurinol day 1 and QD days 3-9, Day 9, geometric mean (gCV%), read-out: AUCτ
[8] = human, plasma, oral, healthy Chinese participants, 12 mg verinurad + 300 mg allopurinol day 1 and QD days 3-9, Day 9, read-out: tmax
[9] = human, plasma, oral, healthy Chinese participants, 12 mg verinurad + 300 mg allopurinol, Day 1, geometric mean (gCV%), read-out: AUC
[10] = human, plasma, oral, healthy Chinese participants, 12 mg verinurad + 300 mg allopurinol, Day 1, geometric mean (gCV%), read-out: AUCτ
[11] = human, plasma, oral, healthy Chinese participants, 12 mg verinurad + 300 mg allopurinol, Day 1, geometric mean (gCV%), read-out: Cmax
[12] = human, plasma, oral, healthy Chinese participants, 12 mg verinurad + 300 mg allopurinol, Day 1, read-out: tmax

Cmax [2, 3] [ng/mL] | Tmax [2, 4] [h] | AUC [2, 5] [ng·h/mL] | Cmax [2, 6] [ng/mL] | AUC [2, 7] [ng·h/mL] | Tmax [2, 8] [h] | AUC [2, 9] [ng·h/mL] | AUC [2, 10] [ng·h/mL] | Cmax [2, 11] [ng/mL] | Tmax [2, 12] [h] | Compound | further results
1770 | 2 | 6020 | 1780 | 5740 | 2.55 | 6210 | 6210 | 1940 | 1.52 | Oc1ncnc2[nH]ncc12 [allopurinol, reference compound] | sUA mean percentage change from screening ([1]; healthy Asian participants): −26.1%; sUA level at baseline (day –1) ([1]; healthy Asian participants, screening 6.31 mg/dL): 4.77 mg/dL; sUA mean percentage change from screening ([1]; healthy Chinese participants): −23.5%; sUA level at baseline (day –1) ([1]; healthy Chinese participants, screening 5.64 mg/dL): 4.49 mg/dL; AUC ([2]; human, plasma, oral, healthy Asian participants, 24 mg verinurad + 300 mg allopurinol QD, Day 1, geometric mean (gCV%), read-out: AUC): 6220 ng·h/mL; AUC ([2]; human, plasma, oral, healthy Asian participants, 24 mg verinurad + 300 mg allopurinol QD, Day 1, geometric mean (gCV%), read-out: AUCτ): 6230 ng·h/mL; Tmax ([2]; human, plasma, oral, healthy Asian participants, 24 mg verinurad + 300 mg allopurinol QD, Day 7, read-out: tmax): 3 h; Cmax ([2]; human, plasma, oral, healthy Chinese participants, 12 mg verinurad + 300 mg allopurinol day 1 and QD days 3-9, Day 9, geometric mean (gCV%), read-out: Cmax): 1570 ng/mL
11100 | 3 | 120000 | 7700 | 139000 | 3.1 | 342000 | 201000 | 11800 | 2 | O=c1[nH]c(=O)c2c[nH]nc2[nH]1 [Oxypurinol, oxypurinol] | AUCτ ([2]; healthy Asian participants, 24 mg verinurad + 300 mg allopurinol QD, Day 1, geometric mean (gCV%)): 180700 (18.3) ng·h/mL; Tmax ([2]; healthy Asian participants, 24 mg verinurad + 300 mg allopurinol QD, Day 7): 4.00 (3.00–6.00) h; Cmax ([2]; healthy Chinese participants, 12 mg verinurad + 300 mg allopurinol day 1 and QD days 3-9, Day 9, geometric mean (gCV%)): 8520 (10.5) ng/mL
